ChEMBL document CHEMBL4680265, “Anti-tubulin agent vinorelbine inhibits metastasis of cancer cells by regulating epithelial-mesenchymal transition” (Eur J Med Chem, 2020)
Active and inactive are the calls of the source. No cut-off for these calls is given here.

How the values were obtained:
[1] = test system: HCT-116; assay: Inhibition of epithelial-mesenchymal transition in human HCT-116 cells assessed as decrease in N-cadherin expression at 0.01 to 1 uM by Western blot analysis; format: functional, cell-based; conditions: dose 0.01-1 µM
[2] = test system: NCI-H1975; assay: Induction of apoptosis in human NCI-H1975 cells assessed as increase in late apoptotic cells at 1 to 100 nM incubated for 48 hrs by annexin V-FITC and PI staining based flow cytometry analysis; format: functional, cell-based; conditions: dose 1-100 nM
[3] = test system: HCT-116; assay: Antiinvasive activity against human HCT-116 cells assessed as reduction in invasion at 1 to 10 nM measured after 48 hrs by DAPI staining based transwell assay; format: functional, cell-based; conditions: dose 1-10 nM
[4] = test system: NCI-H1975; assay: Induction of apoptosis in human NCI-H1975 cells assessed as decrease in Bcl-2 expression at 1 to 100 nM incubated for 48 hrs by Western blot analysis; format: functional, cell-based; conditions: dose 1-100 nM
[5] = test system: NCI-H1975; assay: Inhibition of colony formation in human NCI-H1975 cells at 1 to 100 nM incubated for 3 to 4 days by crystal violet staining based assay; format: functional, cell-based; conditions: dose 1-100 nM, time 3-4 day
[6] = test system: HepG2; assay: Induction of apoptosis in human HepG2 cells assessed as increase in late apoptotic cells at 0.1 to 10 uM incubated for 48 hrs by annexin V-FITC and PI staining based flow cytometry analysis; format: functional, cell-based; conditions: dose 0.1-10 µM
[7] = test system: NCI-H1975; assay: Induction of cell cycle arrest in human NCI-H1975 cells assessed as increase in G2/M phase accumulation at 100 nM incubated for 24 hrs by propidium iodide staining based flow cytometry analysis relative to control; format: functional
[8] = test system: HepG2; assay: Inhibition of colony formation in human HepG2 cells at 0.1 to 10 uM incubated for 3 to 4 days by crystal violet staining based assay; format: functional, cell-based; conditions: dose 0.1-10 µM, time 3-4 day
[9] = test system: HCT-116; assay: Inhibition of epithelial-mesenchymal transition in human HCT-116 cells assessed as increase in E-cadherin expression at 0.01 to 1 uM by Western blot analysis; format: functional, cell-based; conditions: dose 0.01-1 µM
[10] = test system: HCT-116; assay: Induction of apoptosis in human HCT-116 cells assessed as decrease in Bcl-2 expression at 0.01 to 1 uM incubated for 48 hrs by Western blot analysis; format: functional, cell-based; conditions: dose 0.01-1 µM
[11] = test system: HepG2; assay: Induction of apoptosis in human HepG2 cells assessed as decrease in Bcl-2 expression at 0.1 to 10 uM incubated for 48 hrs by Western blot analysis; format: functional, cell-based; conditions: dose 0.1-10 µM
[12] = test system: NCI-H1975; assay: Inhibition of epithelial-mesenchymal transition in human NCI-H1975 cells assessed as decrease in N-cadherin expression at 1 to 100 nM by Western blot analysis; format: functional, cell-based; conditions: dose 1-100 nM
[13] = test system: HepG2; assay: Inhibition of epithelial-mesenchymal transition in human HepG2 cells assessed as downregulation of MMP-2 by Western blot analysis; format: functional, cell-based; conditions: dose 0.1-10 µM
[14] = test system: HepG2; assay: Induction of apoptosis in human HepG2 cells assessed as increase in Bax expression at 0.1 to 10 uM incubated for 48 hrs by Western blot analysis; format: functional, cell-based; conditions: dose 0.1-10 µM
[15] = test system: NCI-H1975; assay: Inhibition of epithelial-mesenchymal transition in human NCI-H1975 cells assessed as increase in Vimentin expression at 1 to 100 nM by Western blot analysis; format: functional, cell-based; conditions: dose 1-100 nM
[16] = test system: NCI-H1975; assay: Antimigratory activity against human NCI-H1975 cells assessed as reduction in migration at 5 nM measured after 96 hrs by scratch wound healing based inverted microscopic analysis relative to control; format: functional
[17] = test system: HepG2; assay: Inhibition of epithelial-mesenchymal transition in human HepG2 cells assessed as downregulation of MMP-9 by Western blot analysis; format: functional, cell-based; conditions: dose 0.1-10 µM
[18] = test system: HepG2; assay: Cytotoxicity against human HepG2 cells assessed as effect on cell morphology incubated for 48 hrs by DAPI staining based fluorescence microscopy; format: functional; conditions: dose 0.1-10 µM
[19] = test system: HCT-116; assay: Cytotoxicity against human HCT-116 cells assessed as reduction in cell viability incubated for 48 hrs by MTT assay; format: functional, cell-based; conditions: HCT-116, 48 h
[20] = test system: HCT-116; assay: Induction of cell cycle arrest in human HCT-116 cells assessed as decrease in cyclin B1 level at 0.01 to 1 uM incubated for 24 hrs by Western blot analysis; format: functional, cell-based; conditions: dose 0.01-1 µM
[21] = test system: HepG2; assay: Induction of cell cycle arrest in human HepG2 cells assessed as increase in G2/M phase accumulation at 0.1 to 10 uM incubated for 24 hrs by propidium iodide staining based flow cytometry analysis; format: functional; conditions: dose 0.1-10 µM
[22] = test system: NCI-H1975; assay: Induction of apoptosis in human NCI-H1975 cells assessed as increase in Bax expression at 1 to 100 nM incubated for 48 hrs by Western blot analysis; format: functional, cell-based; conditions: dose 1-100 nM
[23] = test system: HCT-116; assay: Antimigratory activity against human HCT-116 cells assessed as reduction in migration at 10 nM measured after 96 hrs by scratch wound healing based inverted microscopic analysis relative to control; format: functional
[24] = test system: HepG2; assay: Antimigratory activity against human HepG2 cells assessed as reduction in migration at 1 nM measured after 96 hrs by scratch wound healing based inverted microscopic analysis relative to control; format: functional
[25] = test system: NCI-H1975; assay: Antimigratory activity against human NCI-H1975 cells assessed as reduction in migration at 1 nM measured after 96 hrs by scratch wound healing based inverted microscopic analysis relative to control; format: functional
[26] = test system: NCI-H1975; assay: Induction of apoptosis in human NCI-H1975 cells assessed as increase in early apoptotic cells at 1 to 100 nM incubated for 48 hrs by annexin V-FITC and PI staining based flow cytometry analysis; format: functional, cell-based; conditions: dose 1-100 nM
[27] = test system: HepG2; assay: Antimigratory activity against human HepG2 cells assessed as reduction in migration at 10 nM measured after 96 hrs by scratch wound healing based inverted microscopic analysis relative to control; format: functional
[28] = test system: NCI-H1975; assay: Inhibition of epithelial-mesenchymal transition in human NCI-H1975 cells assessed as downregulation of MMP-9 by Western blot analysis; format: functional, cell-based; conditions: dose 1-100 nM
[29] = test system: NCI-H1975; assay: Induction of cell cycle arrest in human NCI-H1975 cells assessed as increase in G2/M phase accumulation at 1 nM incubated for 24 hrs by propidium iodide staining based flow cytometry analysis relative to control; format: functional
[30] = test system: HepG2; assay: Antiinvasive activity against human HepG2 cells assessed as reduction in invasion at 0.1 to 10 nM measured after 48 hrs by DAPI staining based transwell assay; format: functional, cell-based; conditions: dose 0.1-10 nM

CCC1=C[C@@H]2CN(C1)Cc1c([nH]c3ccccc13)[C@@](C(=O)OC)(c1cc3c(cc1OC)N(C)[C@H]1[C@@](O)(C(=O)OC)[C@H](OC(C)=O)[C@]4(CC)C=CCN5CC[C@]31[C@@H]54)C2 [VINORELBINE]
inhibition [1]: Active
Activity [2]: Active
inhibition [3]: Active
Activity [4]: Active
inhibition [5]: Active
Activity [6]: Active
Activity [7]: 51.85%
inhibition [8]: Active
inhibition [9]: Active
Activity [10]: Active
Activity [11]: Active
inhibition [12]: Active
inhibition [13]: Dose-dependent effect
Activity [14]: Active
inhibition [15]: Active
inhibition at 0.005 µM [16]: 52.6%
inhibition [17]: Dose-dependent effect
Activity [18]: Dose-dependent effect
IC50 [19]: 14.9 nM
Activity [20]: inactive
Activity [21]: Active
Activity [22]: Active
inhibition at 0.01 µM [23]: 50.9%
inhibition at 0.001 µM [24]: 33.1%
inhibition at 0.001 µM [25]: 0.7%
Activity [26]: Active
inhibition at 0.01 µM [27]: 47.4%
inhibition [28]: Dose-dependent effect
Activity [29]: 17.39%
inhibition [30]: Active
